Data taken from the NIST ThermoML archive (doi:10.1016/j.jct.2019.03.035).
± gives the expanded uncertainty stated by the source.

Experiment: molar heat capacity at constant pressure; xn = mol fraction of the nth substance listed
Conditions: 100 kPa, Liquid, DSC, x1 = 0.53

N#Cc1ccccc1 [benzonitrile] + CCCCCCCCCC
Conditions | molar heat capacity at constant pressure [J/K/mol]
281.74 K | 261.8 ± 10
281.89 K | 260.4 ± 10
282.04 K | 262.8 ± 10
282.19 K | 264 ± 10
282.34 K | 264.4 ± 10
282.48 K | 263.4 ± 10
282.63 K | 264 ± 10
282.78 K | 263.3 ± 10
282.93 K | 263.9 ± 10
283.08 K | 266.3 ± 10
283.23 K | 265.2 ± 10
283.38 K | 266.7 ± 10
283.52 K | 266.3 ± 10
283.67 K | 268.2 ± 10
283.82 K | 266.5 ± 10
283.97 K | 267.5 ± 10
284.12 K | 266.6 ± 10
284.26 K | 265.9 ± 10
284.41 K | 266.6 ± 10
284.56 K | 268 ± 10
284.71 K | 266.6 ± 10
284.86 K | 268.5 ± 10
285.01 K | 265.8 ± 10
285.16 K | 269.9 ± 10
285.3 K | 270.2 ± 10
285.45 K | 268.9 ± 10
285.6 K | 269.8 ± 10
285.75 K | 271.8 ± 10
285.9 K | 271.1 ± 10
286.05 K | 270.5 ± 10
286.19 K | 273.2 ± 11
286.34 K | 273.4 ± 11
286.49 K | 278.6 ± 11
286.64 K | 283.9 ± 11
286.79 K | 282.2 ± 11
286.94 K | 285.9 ± 11
287.09 K | 285.2 ± 11
287.23 K | 307.6 ± 13
287.38 K | 254 ± 12
287.53 K | 250.3 ± 9.7
287.68 K | 248.6 ± 9.6
287.83 K | 246.7 ± 9.6
287.98 K | 247.4 ± 9.6
288.12 K | 245.8 ± 9.5
288.27 K | 246 ± 9.5
288.42 K | 245.6 ± 9.5
288.57 K | 244.9 ± 9.5
288.72 K | 244.8 ± 9.5
288.87 K | 244.5 ± 9.5
289.01 K | 244.3 ± 9.5
289.16 K | 243.6 ± 9.4
289.31 K | 244.2 ± 9.5
289.46 K | 243.9 ± 9.4
289.61 K | 244.1 ± 9.5
289.76 K | 243.4 ± 9.4
289.9 K | 243.5 ± 9.4
290.05 K | 243.5 ± 9.4
290.2 K | 243.2 ± 9.4
290.35 K | 243.1 ± 9.4
290.5 K | 243.2 ± 9.4
290.65 K | 243.1 ± 9.4
290.83 K | 243 ± 9.4
290.98 K | 241.8 ± 9.4
291.13 K | 243 ± 9.4
291.28 K | 243.4 ± 9.4
291.43 K | 242.8 ± 9.4
291.57 K | 242.5 ± 9.4
291.72 K | 242.7 ± 9.4
291.87 K | 242.8 ± 9.4
292.02 K | 242.4 ± 9.4
292.17 K | 242.1 ± 9.4
292.32 K | 241.7 ± 9.4
292.46 K | 242.5 ± 9.4
292.61 K | 242.1 ± 9.4
292.76 K | 241.7 ± 9.4
292.91 K | 242.6 ± 9.4
293.06 K | 242 ± 9.4
293.21 K | 242.1 ± 9.4
293.36 K | 242.4 ± 9.4
293.5 K | 241.7 ± 9.4
293.65 K | 242.3 ± 9.4
293.8 K | 242.2 ± 9.4
293.95 K | 242.1 ± 9.4
294.1 K | 241.7 ± 9.4
294.25 K | 241.9 ± 9.4
294.39 K | 241.8 ± 9.4
294.54 K | 242.1 ± 9.4
294.69 K | 242.1 ± 9.4
294.84 K | 242.3 ± 9.4
294.99 K | 241.7 ± 9.4
295.14 K | 242.2 ± 9.4
295.29 K | 242.1 ± 9.4
295.43 K | 241.7 ± 9.4
295.58 K | 242 ± 9.4
295.73 K | 242.1 ± 9.4
295.88 K | 242.8 ± 9.4
296.03 K | 242.1 ± 9.4
296.18 K | 242.8 ± 9.4
296.32 K | 242.2 ± 9.4
296.47 K | 241.8 ± 9.4
296.62 K | 241.1 ± 9.3
297.05 K | 242.4 ± 9.4
297.34 K | 242.5 ± 9.4
297.62 K | 242.5 ± 9.4
297.91 K | 242.4 ± 9.4
298.19 K | 242.5 ± 9.4
298.47 K | 242.7 ± 9.4
298.76 K | 242.6 ± 9.4
299.04 K | 242.7 ± 9.4
299.32 K | 242.8 ± 9.4
299.61 K | 242.9 ± 9.4
299.89 K | 242.9 ± 9.4
300.18 K | 243 ± 9.4
300.46 K | 243.1 ± 9.4
300.74 K | 243 ± 9.4
301.03 K | 243 ± 9.4
301.31 K | 243.1 ± 9.4
301.6 K | 243.2 ± 9.4
301.88 K | 243.2 ± 9.4
302.16 K | 243.3 ± 9.4
302.45 K | 243.4 ± 9.4
302.73 K | 243.5 ± 9.4
303.01 K | 243.5 ± 9.4
303.3 K | 243.6 ± 9.4
303.58 K | 243.7 ± 9.4
303.87 K | 243.7 ± 9.4
304.15 K | 243.8 ± 9.4
304.43 K | 243.9 ± 9.4
304.72 K | 243.9 ± 9.4
305 K | 244.1 ± 9.5
305.29 K | 244.1 ± 9.5
305.57 K | 244 ± 9.5
305.85 K | 244.2 ± 9.5
306.14 K | 244.3 ± 9.5
306.42 K | 244.3 ± 9.5
306.7 K | 244.4 ± 9.5
306.99 K | 244.5 ± 9.5
307.27 K | 244.6 ± 9.5
307.56 K | 244.6 ± 9.5
307.84 K | 244.7 ± 9.5
308.12 K | 244.9 ± 9.5
308.41 K | 244.8 ± 9.5
308.69 K | 244.9 ± 9.5
308.98 K | 245.1 ± 9.5
309.26 K | 245 ± 9.5
309.54 K | 245.1 ± 9.5
309.83 K | 245.2 ± 9.5
310.11 K | 245.4 ± 9.5
310.39 K | 245.5 ± 9.5
310.68 K | 245.5 ± 9.5
310.96 K | 245.5 ± 9.5
311.25 K | 245.7 ± 9.5
311.53 K | 245.7 ± 9.5
311.81 K | 245.8 ± 9.5
312.1 K | 245.9 ± 9.5
312.38 K | 246 ± 9.5
312.67 K | 246 ± 9.5
312.95 K | 246.1 ± 9.5
313.23 K | 246.3 ± 9.5
313.52 K | 246.2 ± 9.5
313.8 K | 246.5 ± 9.5
314.08 K | 246.5 ± 9.5
314.37 K | 246.6 ± 9.6
314.65 K | 246.5 ± 9.5
314.94 K | 246.7 ± 9.6
315.22 K | 246.8 ± 9.6
315.5 K | 246.9 ± 9.6
315.79 K | 246.9 ± 9.6
316.07 K | 247 ± 9.6
316.36 K | 247.1 ± 9.6
316.64 K | 247.3 ± 9.6
316.92 K | 247.4 ± 9.6
317.21 K | 247.5 ± 9.6
317.49 K | 247.5 ± 9.6
317.77 K | 247.6 ± 9.6
318.06 K | 247.7 ± 9.6
318.34 K | 247.7 ± 9.6
318.63 K | 247.8 ± 9.6
318.91 K | 248 ± 9.6
319.19 K | 248.1 ± 9.6
319.48 K | 248.2 ± 9.6
319.76 K | 248.2 ± 9.6
320.05 K | 248.3 ± 9.6
320.33 K | 248.4 ± 9.6
320.61 K | 248.5 ± 9.6
320.9 K | 248.5 ± 9.6
321.18 K | 248.6 ± 9.6
321.46 K | 248.7 ± 9.6
321.75 K | 248.9 ± 9.6
322.03 K | 249 ± 9.6
322.32 K | 249 ± 9.6
322.6 K | 249.1 ± 9.6
322.88 K | 249.3 ± 9.7
323.17 K | 249.3 ± 9.7
323.45 K | 249.5 ± 9.7
323.74 K | 249.5 ± 9.7
324.02 K | 249.6 ± 9.7
324.3 K | 249.7 ± 9.7
324.59 K | 249.9 ± 9.7
324.87 K | 250.1 ± 9.7
325.16 K | 250.2 ± 9.7
325.44 K | 250.1 ± 9.7
325.72 K | 250.1 ± 9.7
